Read-outs that look alike come from different tables or passages of the source.
Experiments:
[1] = test system: gegen Benzimidazol-Anthelmintika resistenten Haemonchus contortus; assay: Haemonchus contortus/sheep test, benzimidazole-resistant strain (faecal egg count before and after oral treatment); format: in vivo; settings: read-out: Dosis effectiva minima (Red. ≥90 %) resistenter Stamm
From the text: (§1) Haemonchus contortus/Schaf
(§2) Experimentell mit normal empfindlichen bzw. mit gegen Benzimidazol-Anthelmintika resistenten Haemonchus contortus infizierte Schafe wurden nach Ablauf der Präpatenzzeit des Parasiten behandelt. Die Wirkstoffe wurde als reiner Wirkstoff in Gelatinekapseln oral appliziert.
(§3) Der Wirkungsgrad wird dadurch bestimmt, daß man die mit dem Kot ausgeschiedenen Wurmeier vor und nach der Behandlung quantitativ auszählt.
(§4) Ein völliges Sistieren der Eiausscheidung nach der Behandlung bedeutet, daß die Würmer abgetrieben wurden oder so geschädigt sind, daß sie keine Eier mehr produzieren (Dosis effectiva).
(§5) Geprüfte Wirkstoffe und wirksame Dosierungen (Dosis effectiva minima) sind aus der nachfolgenden Tabelle ersichtlich: […]

[2] = test system: normal empfindlichen Haemonchus contortus; assay: Haemonchus contortus/sheep test, normally sensitive strain (faecal egg count before and after oral treatment); format: in vivo; settings: Schaf, pure active substance in gelatine capsules, treated after prepatent period, reduction of worm egg excretion ≥90 %, read-out: Dosis effectiva minima (Red. ≥90 %) normal empfind-licher Stamm
From the text: as §1, §2, §3, §4, §5

[3] = Schaf, oral, pure active substance in gelatine capsules, treated after prepatent period, reduction of worm egg excretion ≥90 %, benzimidazole-resistant strain

SMILES	minimal effective dose [1, 3]	minimal effective dose [2]	minimal effective dose ([1]; po)
CCCOP(=S)(OCC)OC(=CC#N)c1ccccc1C (centres unmarked) [Verbindung Nr. 89]	2.5 mg/kg	2.5 mg/kg	
CCCSc1ccc2nc(NC(=O)OC)[nH]c2c1 [Albendazol, Methyl-(5-prepylthio-benzimidazol-2-yl)-carbamat]		0.5 mg/kg	5 mg/kg
CCOP(=S)(OCC)OC(=CC#N)c1cccc(C)c1 [Verbindung Nr. 12]	1 mg/kg	1 mg/kg	
CCCCc1ccc2[nH]c(NC(=O)OC)nc2c1 [Parbendazol, 5-N-Butyl-2-methoxycarbonylaminobenzimidazol]		1 mg/kg	10 mg/kg
COC(=O)Nc1nc2ccc(Sc3ccccc3)cc2[nH]1 [Fenbendazol, Methyl-(5-phenyl-thie-benzimidazol-2-yl)-carbamat]		0.5 mg/kg	2.5 mg/kg
CCOP(=S)(OCC)OC(=CC#N)c1ccccc1Br [Verbindung Nr. 46]	1 mg/kg	1 mg/kg	
c1ccc2[nH]c(-c3cscn3)nc2c1 [Thiabendazol, 2-(4-Thiazolyl)-benzimidazel]		25 mg/kg	250 mg/kg
